In PubChem BioAssay (NCI):
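Compound exposure: 48 hours, 5 concentrations, 96-well plates. Abbreviation: GI50, concentration required for 50% inhibition of growth. TGI marks complete inhibition of growth.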

Legend:
Assay in all cases: DTP human tumour cell line panel, 48 h
CAKI-1 renal = test system: CAKI-1 renal
HCC-2998 colon = test system: HCC-2998 colon
LOX IMVI melanoma = test system: LOX IMVI melanoma
MDA-N = test system: MDA-N
PC-3 prostate = test system: PC-3 prostate
SNB-19 CNS = test system: SNB-19 CNS
UO-31 renal = test system: UO-31 renal
HOP-92 NSCLC = test system: HOP-92 NSCLC
TK-10 renal = test system: TK-10 renal
RXF 393 renal = test system: RXF 393 renal

Row | SMILES | TGI (CAKI-1 renal) [µM] | TGI (HCC-2998 colon) [µM] | TGI (LOX IMVI melanoma) [µM] | TGI (MDA-N) [µM] | TGI (PC-3 prostate) [µM] | TGI (SNB-19 CNS) [µM] | TGI (UO-31 renal) [µM] | GI50 (HCC-2998 colon) [µM] | GI50 (HOP-92 NSCLC) [µM] | TGI (HOP-92 NSCLC) [µM] | GI50 (LOX IMVI melanoma) [µM] | GI50 (PC-3 prostate) [µM] | GI50 (SNB-19 CNS) [µM] | GI50 (TK-10 renal) [µM] | TGI (TK-10 renal) [µM] | GI50 (CAKI-1 renal) [µM] | GI50 (RXF 393 renal) [µM] | TGI (RXF 393 renal) [µM] | GI50 (UO-31 renal) [µM]
1 | CN(C)C(=O)Oc1ccc(C(=S)Nc2ccccc2)cc1 | > 100 | > 100 | > 100 | > 100 | > 100 | > 100 | > 100 | – | – | – | – | – | – | – | – | – | – | – | –
2 | CCN(CC)CCNc1ccc([N+](=O)[O-])c2sc3cc(Cl)ccc3c(=O)c12 | – | > 100 | > 100 | – | > 100 | > 100 | – | 11.1 | 2.15 | 30.3 | 2.8 | 2.65 | 2.77 | 2.97 | > 100 | – | – | – | –
3 | COc1cc2c(cc1OCCCOc1ccc(-c3cc4ccccc4c4ccccc34)cc1)N=C[C@@H]1CCCN1C2=O | 1.65 | 2.45 | 2.19 | – | – | 2.37 | 0.593 | 1.21 | 0.334 | 1.53 | 1.02 | – | 1.16 | 0.646 | 1.79 | 0.535 | 0.24 | 0.624 | 0.169
4 | S=c1[nH]nc(CCCCCCCCc2n[nH]c(=S)o2)o1 | > 100 | – | > 100 | > 100 | > 100 | > 100 | > 100 | – | – | – | – | – | – | – | > 100 | – | – | > 100 | –
5 | CCCCCCCCCCCCC1N=C(N)N2CCCC2=C1C(=O)OC (stereo not drawn) | 9.03 | 3.25 | – | 4.72 | 3.95 | 3.41 | 24.4 | – | – | 10.3 | – | – | – | – | > 48.7 | – | – | 69.4 | –
6 | COc1cccc(CCCNC(=O)Cc2ccccc2CO)c1 | > 100 | > 100 | > 100 | > 100 | > 100 | > 100 | > 100 | – | – | > 100 | – | – | – | – | > 100 | – | – | – | –
7 | Cc1ncc(CSC(=N)N)n1Cc1ccccc1 | > 100 | – | – | > 100 | > 100 | > 100 | > 100 | – | – | > 100 | – | – | – | – | > 100 | – | – | > 100 | –
8 | C/C(=N\NC(=S)N1CCOCC1)c1nc2ncccc2[nH]1 | > 100 | > 100 | > 100 | > 100 | > 100 | 84.6 | 96.2 | – | – | 68 | – | – | – | – | > 100 | – | – | – | –
9 | O=C(O)CCC1NC(/C(=C/c2ccccc2O)NC(=O)c2ccccc2)OC1=O (stereo not drawn) | > 100 | > 100 | > 100 | – | > 100 | > 100 | 45.8 | – | – | > 100 | – | – | – | – | > 100 | – | – | > 100 | –
10 | C/C(Nc1ccc(Cl)cc1)=C1/CCOC1=O | > 100 | > 100 | – | > 100 | > 100 | > 100 | > 100 | – | – | > 100 | – | – | – | – | > 100 | – | – | > 100 | –
11 | COC(=O)C(NC(=O)c1ccccc1)C(c1c(O)cc(O)cc1O)P(=O)(OC)OC (stereo not drawn) | > 100 | > 100 | > 100 | – | – | > 100 | > 100 | – | – | > 100 | – | – | – | – | > 100 | – | – | – | –
12 | O=C(O)C1(C(O)c2ccccc2)SCCCS1 (stereo not drawn) | – | – | > 10 | > 10 | > 10 | > 10 | > 10 | – | – | > 10 | – | – | – | – | > 10 | – | – | > 10 | –
13 | Cn1c(NC(=O)NC23CC4CC(CC(C4)C2)C3)nc2ccccc21 | > 100 | > 100 | > 100 | – | – | > 100 | > 100 | – | – | 90.6 | – | – | – | – | > 100 | – | – | 57.4 | –
14 | CCCCCCCc1ccc(-c2nnc(N=Nc3ccc(OCCCCC)cc3)s2)s1 | > 100 | > 100 | – | > 100 | > 100 | > 100 | > 100 | – | – | – | – | – | – | – | > 100 | – | – | > 100 | –
15 | CSc1nc[nH]c1C(N)=S | > 100 | – | > 100 | > 100 | > 100 | > 100 | > 100 | – | – | – | – | – | – | – | > 100 | – | – | > 100 | –
16 | O=C(c1ccccc1)c1cc(Cl)ccc1NCn1nnc2ccccc21 | – | > 100 | > 100 | – | – | > 100 | > 100 | – | – | > 100 | – | – | – | – | > 100 | – | – | > 100 | –
17 | CC(C)(CN1CCCCC1)C(=O)CC(SCCS(=O)(=O)O)c1ccc(Cl)cc1 (stereo not drawn) | 18.3 | 26 | – | 9.57 | 18.1 | 28.9 | 15.1 | – | – | 7.13 | – | – | – | – | 18.9 | – | – | 9.92 | –
18 | O=C1/C(=C/c2ccc(Cl)cc2)Oc2ccccc21 | 12.6 | > 100 | – | > 100 | – | > 100 | 30.4 | – | – | – | – | – | – | – | 64.3 | – | – | 54.8 | –
19 | COc1ccc(C23OCC(Cc4cc(OC)c(OC)cc42)C3CO)cc1OC (stereo not drawn) | > 100 | > 100 | > 100 | – | > 100 | > 100 | > 100 | – | – | – | – | – | – | – | > 100 | – | – | > 100 | –
20 | c1cncc([O][Ge]([O]c2cccnc2)([O]c2cccnc2)[O]c2cccnc2)c1 | > 100 | > 100 | > 100 | – | – | > 100 | > 100 | > 100 | – | – | 47.1 | – | > 100 | > 100 | > 100 | > 100 | > 100 | > 100 | > 100
21 | CC(=O)[C@]1(O)Cc2c(O)c3c(c(O)c2[C@@H](OC2CC(N)C(O)C(C)O2)C1)C(=O)c1c(OCc2ccccc2)cccc1C3=O (stereo partly drawn) | 12 | 2.63 | – | 2.98 | 2.64 | 9.04 | 8.79 | – | – | 22.6 | – | – | – | – | 25 | – | – | 15.1 | –
22 | CCOC(=O)C1C(c2ccc(OC)cc2)c2c([nH]n(-c3ccccc3)c2=O)CC1(C)O (stereo not drawn) | > 100 | > 100 | > 100 | > 100 | > 100 | > 100 | > 100 | – | – | > 100 | – | – | – | – | > 100 | – | – | – | –
